Laboratory results: patent US6444643B1, “Methods of using inhibitors of cyclophilin rotamase activity to affect neurological activity” (priority 1995, dated 2002)
pEC50, pKi: −log10 of the molar value. Where two headings read alike, the source gives them in different places. Numbered stars: 1 amine (or outer) side, 2 acyl side, 3 side chain; on linkers, the order of the positions; unused ones are H or OH. Square brackets hold non-standard residues; d marks the D form. Peptide text beside a SMILES is read from it. MeBmt = C/C=C/C[C@@H](C)[C@@H](O)[C@H](NC)C(=O)O; X1 = C[C@@H](O)[C@@](C)(C(=O)[*:2])N(C)[*:1]; NMeL = CN[C@@H](CC(C)C)C(=O)O; NMeV = CN[C@H](C(=O)O)C(C)C; NMeAbu = CC[C@H](NC)C(=O)O; Abu = CC[C@H](N)C(=O)O; Dha = C=C(N)C(=O)O; Sar = CNCC(=O)O

Experiments:
[1] = target: cyclophilin A (Homo sapiens, UniProt P62937); test: Inhibition of peptidyl-prolyl isomerase (rotamase) activity of cyclophilin, chymotrypsin-coupled assay; assay type: biochemical
Experimental: We evaluated the potencies of drugs in binding to cyclophilin A by examining inhibition of peptidyl prolyl-isomerase activity (Table 1).
The inhibition of this reaction caused by the addition of different concentrations of inhibitor is determined, and the data is analyzed as a change in first-order rate constant as a function of inhibitor concentration to yield the apparent Ki values. The absorbance at 390 nm versus time is monitored for 90 sec using a spectrophotometer and the rate constants are determined from the absorbance versus. time data files.

[2] = test system: chick dorsal root ganglia explants; test: Chick dorsal root ganglion cultures and neurite outgrowth; assay type: cell-based; conditions: for Neurotrophic Potency, Neurite Outgrowth in Chick DRG: relative to cyclosporin A, 48 hours after drug treatment
[3] = test system: PC12 cells and sensory neurons, namely dorsal root ganglion cells (DRGS); conditions: picomolar concentrations; cited from earlier work
[4] = apparent Ki, substrate N-succinyl-Ala-Ala-Pro-Phe-p-nitroanilide, read-out: Ki, cyclophilin inhibition

cyclophilin A, sequence (P62937 whole entry, species assumed): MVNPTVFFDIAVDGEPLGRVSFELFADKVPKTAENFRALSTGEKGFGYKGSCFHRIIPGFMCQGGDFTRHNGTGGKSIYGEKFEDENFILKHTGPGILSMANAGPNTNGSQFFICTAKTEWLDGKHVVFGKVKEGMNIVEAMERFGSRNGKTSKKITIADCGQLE

| Compound | pKi [1, 4] | Neurotrophic Potency, Neurite Outgrowth in Chick DRG [2] | pKi [1] | neurite outgrowth [3] | pEC50 ([2]; chick DRG explants, from dose-response curves (FIG. 1), read-out: ED50, the dose at which 50% of the maximal response was elicited (neurite outgrowth)) |
| --- | --- | --- | --- | --- | --- |
| CCCC[C@@H](C)[C@@H](O)[C@H]1C(=O)N[C@@H](CC)C(=O)N(C)CC(=O)N(C)[C@@H](CC(C)C)C(=O)N[C@@H](C(C)C)C(=O)N(C)[C@@H](CC(C)C)C(=O)N[C@@H](C)C(=O)N[C@H](C)C(=O)N(C)[C@@H](CC(C)C)C(=O)N(C)[C@@H](CC(C)C)C(=O)N(C)[C@@H](C(C)C)C(=O)N1C [Example 2, dihydro-CsA] | 7.00 | + |  |  |  |
| C/C=C/C[C@@H](C)[C@@H](O)[C@H]1C(=O)N[C@@H](CC)C(=O)N(C)CC(=O)N(C)[C@@H](C(C)C)C(=O)N[C@@H](C(C)C)C(=O)N(C)[C@@H](CC(C)C)C(=O)N[C@@H](C)C(=O)N[C@H](C)C(=O)N(C)[C@@H](CC(C)C)C(=O)N(C)[C@@H](CC(C)C)C(=O)N(C)[C@@H](C(C)C)C(=O)N1C [Example 4, [MeVal]^4-CsA] (cyclo([MeBmt][Abu][Sar][NMeV]V[NMeL]A[dA][NMeL][NMeL][NMeV])) |  | +++ | 8.00 |  |  |
| C=C1NC(=O)[C@H](C)NC(=O)[C@H](CC(C)C)N(C)C(=O)[C@H](C(C)C)NC(=O)[C@H](CC(C)C)N(C)C(=O)CN(C)C(=O)[C@H](CC)NC(=O)[C@H]([C@H](O)[C@H](C)C/C=C/C)N(C)C(=O)[C@H](C(C)C)N(C)C(=O)[C@H](CC(C)C)N(C)C(=O)[C@H](CC(C)C)N(C)C1=O [Example 3, [dehydro-Ala]^8-CsA] (cyclo(A[Dha][NMeL][NMeL][NMeV][MeBmt][Abu][Sar][NMeL]V[NMeL])) | 7.12 | + |  |  |  |
| C/C=C/C[C@@H](C)[C@@H](O)[C@H]1C(=O)N[C@@H](CC)C(=O)N(C)CC(=O)N(C)[C@@H](CC)C(=O)N[C@@H](C(C)C)C(=O)N(C)[C@@H](CC(C)C)C(=O)N[C@@H](C)C(=O)N[C@H](C)C(=O)N(C)[C@@H](CC(C)C)C(=O)N(C)[C@@H](CC(C)C)C(=O)N(C)[C@@H](C(C)C)C(=O)N1C [Example 5, [Me-homoAla]^4-CsA] (cyclo([MeBmt][Abu][Sar][NMeAbu]V[NMeL]A[dA][NMeL][NMeL][NMeV])) |  | +++ |  |  |  |
| cyclosporin A [Example 1, reference compound] |  | +++ |  | stimulates neurite out growth | 7.30 |
| C/C=C/C[C@@H](C)[C@@H](O)[C@H]1C(=O)N[C@@H](CC)C(=O)N(C)CC(=O)N(C)[C@@](C)([C@@H](C)O)C(=O)N[C@@H](C(C)C)C(=O)N(C)[C@@H](CC(C)C)C(=O)N[C@@H](C)C(=O)N[C@H](C)C(=O)N(C)[C@@H](CC(C)C)C(=O)N(C)[C@@H](CC(C)C)C(=O)N(C)[C@@H](C(C)C)C(=O)N1C [Example 6, [Me-(a-methyl)Thr]^4-CsA] (cyclo([MeBmt][Abu][Sar][X1]V[NMeL]A[dA][NMeL][NMeL][NMeV])) |  | +++ |  |  |  |
